The values that follow come from patent US11912695B2, “Benzodiazepine derivatives as RSV inhibitors” (ENANTA PHARMACEUTICALS, INC., priority 2019, dated 2024).

Assay [1] has as its system Human RSV-A (“Long” strain). In words: RSV-A assay (CPE, ATPlite) in Hep-2 cells. In kind it is cell-based. As to conditions: human respiratory syncytial virus, 120 h, MOI 0.1, 5-day incubation, ATPlite readout. An excerpt: Hep-2 cells, (originally derived from tumors grown in irradiated-cortisonised weanling rats that had been injected with epidermoid carcinoma tissue from a person's larynx, but later found to be indistinguishable from HeLa cells by PCR DNA analysis), were used for the culturing of genotype A, “Long” strain RSV. Flasks were inoculated with RSV and viral stocks were collected once cytopathic effect (CPE) was greater than 90%. Viral stocks in 25% sucrose media were snap frozen using liquid nitrogen to increase viral stability. Viral stock titers were quantified by tissue culture infectious dose 50% (TCID50) using 8,000 cells per well and 3-fold viral dilutions across a 96-well plate, cultured for 4 days. Viral stock titers were also quantified by a plaque forming unit assay, as described elsewhere.
Following extensive parameter testing, the final assay is run as follows: Hep-2 cells are seeded into the inner 60 wells of a 96-well plate at 8,000 cells per well in a volume of 50 μL using Growth Media (DMEM without phenol red, 1% L-Glut, 1% Penn/Strep, 1% nonessential amino acids, 10% heat-inactivated FBS). 2-fold serial dilutions of control and test compounds are added to the wells in duplicate in a total volume of 25 μL. Viral stock is then added to the wells at a multiplicity of infection (MOI) of 0.1 in a volume of 25 μL, bringing the total volume of each well to 100 μL. The MOI is calculated using the PFU/mL, or TCID50 if unavailable. Each 96-well plate has a control column of 6 wells with cells and virus but no compound (negative control, max CPE), a column with cells but no compound or virus (positive control, minimum CPE), and a column with no cells or virus or compound (background plate/reagent control). The control wells with cells but no virus are given an additional 25 μL of growth media containing an equal quantity of sucrose as those wells receiving the viral stock in order to keep consistent in media and volume conditions. The outer wells of the plate are filled with 125 μL of moat media (DMEM, 1% Penn/Strep) to act as a thermal and evaporative moat around the test wells. Following a 5-day incubation period, the plates are read using ATPlite (50 μL added per well), which quantifies the amount of ATP (a measure of cell health) present in each well. Assay plates are read using the Envision luminometer. In parallel, cytotoxicity is examined on an additional 96-well plate treated in an identical manner, but substituting the 25 μL of viral stock for 25 μL of growth media. […] EC50 ranges are as follows: A<0.4 μM; B 0.4-0.8 μM; C>0.8 μM.
A general note: Cellular ATP, detected with luciferase, serves as a proxy for viable cell number.

In assay [2] the test system is Human RSV-B (genotype B, strain 9320). As to the kind of experiment: RSV-B assay (qPCR or ATPlite) in A549 cells. As to conditions: human respiratory syncytial virus, 144 h, strain 9320, MOI 0.5, 6 days post infection, qPCR or ATPlite readout. In kind it is cell-based. An excerpt:
Hep-2 cells, (originally derived from tumors grown in irradiated-cortisonised weanling rats that had been injected with epidermoid carcinoma tissue from a person's larynx, but later found to be indistinguishable from HeLa cells by PCR DNA analysis), were used for the culturing of genotype B, strain 9320. Flasks were inoculated with RSV-B and viral stocks were collected once cytopathic effect (CPE) was greater than 90%. Viral stocks in 25% sucrose media were snap frozen using liquid nitrogen to increase viral stability. Viral stock titers were quantified by tissue culture infectious dose 50% (TCID50) using 8,000 cells per well and 5-fold viral dilutions across a 96-well plate, cultured for 4 days. Viral stock titers were also quantified by a plaque forming unit assay, as described elsewhere.
The assay is run as follows: A549 cells (originally derived through explant culture from a person's carcinomatous lung tissue) are seeded into the inner 60 wells of a 96-well plate at 3,000 cells per well in a volume of 50 μL using A549 growth media (F-12K Media, 1% Penn/Strep, 1% nonessential amino acids, 10% heat-inactivated FBS). 2-fold serial dilutions of control and test compounds are added to the wells in duplicate in a total volume of 25 μL. Viral stock is then added to the wells at a multiplicity of infection (MOI) of 0.5 in a volume of 25 μL, bringing the total volume of each well to 100 μL. The MOI is calculated using the PFU/mL, or TCID50 if unavailable. Each 96-well plate has a control column of 6 wells with cells and virus but no compound (negative control, max CPE), a column with cells but no compound or virus (positive control, minimum CPE), and a column with no cells or virus or compound (background plate/reagent control). The control wells with cells but no virus are given an additional 25 μL of growth media containing an equal quantity of sucrose as those wells receiving the viral stock in order to keep consistent in media and volume conditions. The outer wells of the plate are filled with 125 μL of moat media (DMEM, 1% Penn/Strep) to act as a thermal and evaporative moat around the test wells. 6 days post infection, the plates are read using qPCR or ATP lite (50 μL added per well), which quantifies the amount of ATP (a measure of cell health) present in each well. Assay plates treated with APTlite are read using the Envision luminometer. […] EC50 ranges are as follows: A<0.4 μM; B 0.4-0.8 μM; C>0.8 μM.
For orientation: Quantitative PCR measures a nucleic acid by following its amplification.

Some results are limits rather than exact numbers.

Turning to `O=C1Nc2ccccc2C(c2ccccc2)=NC1Nc1nnc(-c2ncc(C(F)(F)F)cc2-c2cnc(CO)nc2)o1` (centres unmarked) [Example 9], the EC50 in assay [1] and in assay [2] was > 800 nM throughout.
In the case of `CCc1nc(-c2nnc(N[C@H]3N=C(c4ccccc4)c4cccc(F)c4NC3=O)o2)c(-c2cnc(C3CC3)nc2)s1` [Example 54], the EC50 in assay [1] and in assay [2] was < 400 nM throughout.
For `Cc1ncc(-c2sc(C(F)(F)F)nc2-c2nnc(NC3N=C(c4ccccc4)c4ccccc4NC3=O)o2)cn1` (centres unmarked) [Example 33], the concentration for a half-maximal effect (EC50) in assay [1] and in assay [2] was < 400 nM throughout.
For the compound `CCc1ncc(-c2sc(C(F)(F)F)nc2-c2nnc(N[C@H]3N=C(c4ccccc4)c4cccc(F)c4NC3=O)o2)cn1` [Example 32], the EC50 in assay [1] and in assay [2] was < 400 nM in each case.
Consider `CCc1ncc(-c2sc(C3(C)CC3)nc2-c2nnc(N[C@H]3N=C(c4ccccc4)c4cccc(F)c4NC3=O)o2)cn1` [Example 69], for which the concentration giving a half-maximal response (EC50) in assay [1] and in assay [2] was < 400 nM in each case.
Turning to `O=C1Nc2ccccc2C(c2ccccc2)=NC1Nc1nnc(-c2ncc(C(F)(F)F)cc2-c2cnc(NC3CC3)nc2)o1` (centres unmarked) [Example 20], the results for the EC50 in assay [1] and in assay [2] were 400 to 800 nM and < 400 nM, respectively.
`Cc1cnc(-c2nnc(N[C@H]3N=C(c4ccccc4)c4ccccc4NC3=O)o2)c(-c2cnc(C3CC3)nc2)c1` [Example 99]: the EC50 in assay [1] and in assay [2] was < 400 nM throughout.
In the case of `CCc1ncc(-c2sc(C)nc2-c2nnc(N[C@@H]3N=C(c4ccccc4)c4cccc(F)c4NC3=O)o2)cn1` [Example 37], the EC50 in assay [1] and in assay [2] was < 400 nM in each case.
Turning to `CCc1ncc(-c2sc(C(F)(F)F)nc2-c2nnc(N[C@@H]3N=C(c4ccccc4)c4cccc(F)c4NC3=O)o2)cn1` [Example 42], the EC50 in assay [1] and in assay [2] was < 400 nM each time.
On to `CCc1ncc(-c2sc(C3(C(F)(F)F)CC3)nc2-c2nnc(N[C@H]3N=C(c4ccccc4)c4ccccc4NC3=O)o2)cn1` [Example 71], for which the 50% effective concentration (EC50) in assay [1] and in assay [2] was < 400 nM throughout.
As to `O=C1Nc2ccccc2C(c2ccccc2)=NC1Nc1nnc(-c2ncccc2-c2cnc(C3CC3)nc2)o1` (centres unmarked) [Example 16], the EC50 in assay [1] is 400 to 800 nM; in assay [2], < 400 nM.
For `CCc1ncc(-c2cc(C(F)(F)F)cnc2-c2nnc(N[C@H]3N=C(c4ccccc4)c4cccc(F)c4NC3=O)o2)cn1` [Example 28] the same measures were < 400 nM and < 400 nM.
For the compound `Cc1nc(-c2nnc(N[C@@H]3N=C(c4ccccc4)c4cccc(F)c4NC3=O)o2)c(-c2cnc(C3CC3)nc2)s1` [Example 40], the EC50 in assay [1] and in assay [2] was < 400 nM throughout.
In the case of `O=C1Nc2c(F)cccc2C(c2ccccc2)=N[C@@H]1Nc1nnc(-c2nc(C3(C(F)(F)F)CC3)sc2-c2cnc(C3CC3)nc2)o1` [Example 75], the EC50 in assay [1] and in assay [2] was < 400 nM each time.
For the compound `O=C1Nc2ccccc2C(c2ccccc2)=N[C@@H]1Nc1nnc(-c2ncc(C(F)F)cc2-c2cnc(C3CC3)nc2)o1` [Example 98], the concentration for a half-maximal effect (EC50) in assay [1] and in assay [2] was < 400 nM in each case.
Turning to `CCc1ncc(-c2sc(C3CC3)nc2-c2nnc(N[C@H]3N=C(c4ccccc4)c4cccc(F)c4NC3=O)o2)cn1` [Example 43], the EC50 in assay [1] and in assay [2] was < 400 nM in each case.
Take `Cc1ncc(-c2nc(C(F)(F)F)ccc2-c2nnc(N[C@H]3N=C(c4ccccc4)c4ccccc4NC3=O)o2)cn1` [Example 21]: the EC50 is 400 to 800 nM in assay [1] and < 400 nM in assay [2].
For the compound `N#Cc1ncc(-c2cc(C(F)(F)F)cnc2-c2nnc(NC3N=C(c4ccccc4)c4ccccc4NC3=O)o2)cn1` (centres unmarked) [Example 5], the EC50 in assay [1] is > 800 nM.
As to `O=C1Nc2ccccc2C(c2ccccc2)=NC1Nc1nnc(-c2ncc(C(F)(F)F)cc2-c2cnc(Cl)nc2)o1` (centres unmarked) [Example 14, 3-((5-(3-(2-chloropyrimidin-5-yl)-5-(trifluoromethyl)pyridin-2-yl)-1,3,4-oxadiazol-2-yl)amino)-5-phenyl-1,3-dihydro-2H-benzo[e][1,4]diazepin-2-one], the EC50 in assay [1] and in assay [2] was > 800 nM in each case.
Turning to `O=C1Nc2ccccc2C(c2ccccc2)=NC1Nc1nnc(-c2ncc(C(F)(F)F)cc2-c2cnc(C3CC3)nc2)o1` (centres unmarked) [Example 7], the EC50 in assay [1] and in assay [2] was < 400 nM in each case.
Consider `CCc1ncc(-c2sc(C3CC3)nc2-c2nnc(N[C@@H]3N=C(c4ccccc4)c4cccc(F)c4NC3=O)o2)cn1` [Example 44], for which the EC50 in assay [1] and in assay [2] was < 400 nM throughout.
As for `O=C1Nc2ccccc2C(c2ccccc2)=NC1Nc1nnc(-c2ncc(C(F)(F)F)cc2-c2cncnc2)o1` (centres unmarked) [Example 2], the EC50 in assay [1] and in assay [2] was > 800 nM each time.
Consider `Cc1ncc(-c2sc(C3CCC3)nc2-c2nnc(N[C@@H]3N=C(c4ccccc4)c4cccc(F)c4NC3=O)o2)cn1` [Example 60], for which the EC50 in assay [1] and in assay [2] was < 400 nM each time.
`COc1ncc(-c2cc(C(F)(F)F)cnc2-c2nnc(NC3N=C(c4ccccc4)c4ccccc4NC3=O)o2)cn1` (centres unmarked) [Example 3]: the EC50 in assay [1] and in assay [2] was 400 to 800 nM throughout.
Consider `CCc1ncc(-c2sc(C3CC3)nc2-c2nnc(N[C@H]3N=C(c4ccccc4)c4ccccc4NC3=O)o2)cn1` [Example 50], for which the EC50 in assay [1] and in assay [2] was < 400 nM in each case.
Regarding `CC(F)(F)c1ncc(-c2cc(C(F)(F)F)cnc2-c2nnc(NC3N=C(c4ccccc4)c4ccccc4NC3=O)o2)cn1` (centres unmarked) [Example 11], the figures for the EC50 in assay [1] and in assay [2] were > 800 nM and 400 to 800 nM, respectively.
For `C=Cc1ncc(-c2cc(C(F)(F)F)cnc2-c2nnc(NC3N=C(c4ccccc4)c4ccccc4NC3=O)o2)cn1` (centres unmarked) [Example 18] the same measures were 400 to 800 nM and < 400 nM.
On to `CCc1ncc(-c2cc(C(F)(F)F)cnc2-c2nnc(NC3N=C(c4ccccc4)c4ccccc4NC3=O)o2)cn1` (centres unmarked) [Example 8], for which the EC50 in assay [1] and in assay [2] was < 400 nM each time.
Regarding `CCc1ncc(-c2sc(C3(C(F)(F)F)CC3)nc2-c2nnc(N[C@H]3N=C(c4ccccc4)c4cccc(F)c4NC3=O)o2)cn1` [Example 63], the concentration for a half-maximal effect (EC50) in assay [1] and in assay [2] was < 400 nM throughout.
For `O=C1Nc2c(F)cccc2C(c2ccccc2)=N[C@@H]1Nc1nnc(-c2ncc(C3CC3)cc2-c2cnc(C3CC3)nc2)o1` [Example 76], the EC50 in assay [1] and in assay [2] was < 400 nM throughout.
Regarding `Cc1ncc(-c2sc(C3(C(F)(F)F)CC3)nc2-c2nnc(N[C@@H]3N=C(c4ccccc4)c4cccc(F)c4NC3=O)o2)cn1` [Example 72], the EC50 in assay [1] was > 800 nM; in assay [2] it was < 400 nM.
Take `O=C1Nc2ccccc2C(c2ccccc2)=NC1Nc1nnc(-c2ncc(C(F)(F)F)cc2-c2cnc(CF)nc2)o1` (centres unmarked) [Example 6]: in assay [1], the EC50 was < 400 nM.

By EC50 is commonly meant the concentration at which the effect is half-maximal. The low end stands for an effect from little substance, the high end for a need for much substance.
